Patent US20200187505A1, “SEED, SOIL, AND PLANT TREATMENT COMPOSITIONS” (RALCO NUTRITION, INC., priority 2017, published 2020)

Test system: soy
Settings: in-furrow, five grams per acre, versus check; for average soybean seed weight per pot: FIG. 49
Text: The Generate was applied at a rate one pint per acre. The remaining compositions were applied at a rate of five grams per acre. The soy was planted in May and harvested in October, with fertilizer applications in June and July.

| Substance | total average soybean seed weight (FIG. 48) | average soybean seed weight per pot |
| --- | --- | --- |
| nickel lactate | increase total average soybean seed weight above the check | increase seed weight over the check |
| nickel ammonium citrate |  | increase seed weight over the check |
